Results reported in patent publication US20250025427A1, “MIXED AMIDE ESTER CONTAINING LIPIDS FOR USE IN LIPID NANOPARTICLES” (Acuitas Therapeutics, Inc., priority 2023, published 2025).

system: luciferase protein (FLuc mRNA) expression in liver; assay: Luciferase mRNA in vivo evaluation using lipid nanoparticle compositions; set-up: species or system mice; conditions: LNP with the cationic lipid, 0.3 mg mRNA/kg, tail vein injection, ng luciferase/g liver 4 hours after administration
Procedure: (§1) A lipid of Formula (I), DSPC, cholesterol and PEG-lipid of Formula (II) are solubilized in ethanol at a molar ratio of 50:10:38.5:1.5 or 47.5:10:40.7:1.8. Lipid nanoparticles (LNP) are prepared at a total lipid to mRNA weight ratio of approximately 10:1 to 40:1. Briefly, the mRNA is diluted to 0.2 mg/mL in 10 to 50 mM citrate buffer, pH 4 to 6 or 10 to 25 mM acetate buffer, pH 4 to 6. Syringe pumps are used to mix the ethanolic lipid solution with the mRNA aqueous solution at a ratio of about 1:5 to 1:3 (vol/vol) with total flow rates above 15 mL/min. The ethanol is then removed, and the external buffer replaced with PBS by dialysis. Finally, the lipid nanoparticles are filtered through a 0.2 µm pore sterile filter.
Studies are performed in 6-8-week-old female C57BL/6 mice (Charles River) or 8-10-week-old CD-1 mice (Charles River or Inotiv) according to guidelines established by an institutional animal care committee (ACC) and the Canadian Council on Animal Care (CCAC). Varying doses of mRNA-lipid nanoparticle are systemically administered by tail vein injection and animals euthanized at a specific time point (e.g., 4 hours) post-administration. Liver and spleen are collected in pre-weighed tubes, weights determined, immediately snap frozen in liquid nitrogen, and stored at −80° C. until processing for analysis. […]

In the case of `CCCCCCCCCCN(CCCCCCCCCC)C(=O)CCCCCCCN(C)CCCCCCCC(=O)NCCCCCC(=O)OCC(CCCCCC)CCCCCCCC` (centres unmarked) [Compound I-3, 2-Hexyldecyl 6-(8-((8-(Didecylamino)-8-Oxooctyl)(Methyl)Amino)Octanamido)Hexanoate], the “Liver Luc (ng/g) @ 0.3 mg/kg” value is reported as 8191 ± 2369 ng/g.

same assay, conditions: LNP with the cationic lipid, 1.0 mg mRNA/kg, tail vein injection, ng luciferase/g liver 4 hours after administration

In the case of `CCCCCCCCCCN(CCCCCCCCCC)C(=O)CCCCCCCN(C)CCCCCCCC(=O)NCCCCCC(=O)OCC(CCCCCC)CCCCCCCC` (centres unmarked) [Compound I-3, 2-Hexyldecyl 6-(8-((8-(Didecylamino)-8-Oxooctyl)(Methyl)Amino)Octanamido)Hexanoate], the “Liver Luc (ng/g) @ 1.0 mg/kg” value is reported as 25381 ± 4022 ng/g.

system: human IgG in mouse serum; assay: Immunoglobulin G (IgG) mRNA in vivo evaluation using lipid nanoparticle compositions; set-up: species or system mice; conditions: LNP with the cationic lipid, 0.3 mg mRNA/kg, tail vein injection, μg IgG/mL serum 24 hours after administration
Procedure: as §1
Studies are performed in 6-8-week-old CD-1/ICR mice (Charles River or Inotiv) according to guidelines established by an institutional animal care committee (ACC) and the Canadian Council on Animal Care (CCAC). Varying doses of mRNA-lipid nanoparticle are systemically administered by tail vein injection and animals euthanized at a specific time point (e.g., 24 hours) post-administration. The whole blood is collected, and the serum subsequentially separated by centrifuging the tubes of the whole blood at 2000×g for 10 minutes at 4° C. and stored at −80° C. until use for analysis.
For immunoglobulin G (IgG) ELISA (Life Diagnostics Human IgG ELISA kit), the serum samples are diluted at 100 to 20,000 folds with 1× diluent solution. 100 μL of diluted serum is dispensed into anti-human IgG coated 96-well plate in duplicate alongside human IgG standards and incubated in a plate shaker at 150 rpm at 25° C. for 45 minutes. The wells are washed 5 times with 1× wash solution using a plate washer (400 μL/well). 100 μL of HRP conjugate is added into each well and incubated in a plate shaker at the same condition above. The wells are washed 5 times again with 1× wash solution using a plate washer (400 μL/well). 100 μL of TMB reagent is added into each well and incubated in a plate shaker at the same condition above. The reaction is stopped by adding 100 μL of Stop solution to each well. The absorbance is read at 450 nm (A450) with a microplate reader. The amount of human IgG in mouse serum is determined by plotting A450 values for the assay standard against human IgG concentration.
Representative compounds of the disclosure shown in Table 2 were formulated using the following molar ratio: 50% cationic lipid/10% distearoylphosphatidylcholine (DSPC)/38.5% Cholesterol/1.5% PEG lipid 2-[2-(ω-methoxy(polyethyleneglycohooo)ethoxy]-N,N-ditetradecylacetamide) or 47.5% cationic lipid/10% DSPC/40.7% Cholesterol/1.8% PEG lipid. Relative activity was determined by measuring the amount of human IgG […]. The activity was compared at a dose of 1.0 or 0.3 mg mRNA/kg and expressed as ng luciferase/g liver measured 4 hours after administration, as described in Example 1 or as μg IgG/mL serum measured 24 hours after administration, as described in Example 2. Compound numbers in Table 2 refer to the compound numbers of Table 1.

Compared with `CCCCCCCCC(CCCCCC)C(=O)OCCCCCCCCC(=O)N(CCCCCC)CCCCCCN(C)CCCCCCN(CCCCCC)C(=O)CCCCCCCCOC(=O)C(CCCCCC)CCCCCCCC` (centres unmarked) [Compound I-13, (((methylazanediyl)bis(hexane-6,1-diyl))bis(hexylazanediyl))bis(9-oxononane-9,1-diyl) bis(2-hexyldecanoate)], `CCCCCCCCC(CCCCCC)COC(=O)CCCCCCCC(=O)N(CCCCCC)CCCCCCN(C)CCCCCCN(CCCCCC)C(=O)CCCCCCCC(=O)OCC(CCCCCC)CCCCCCCC` (centres unmarked) [Compound I-5, Bis(2-Hexyldecyl) 9,9′-(((Methylazanediyl)Bis(Hexane-6,1-Diyl))Bis(Hexylazanediyl))Bis(9-Oxononanoate)] is 5.1-fold higher in “Serum IgG (μg/mL) @ 0.3 mg/kg” value: 11.3 ± 4.7 µg/mL for the first, 57.5 ± 8.4 µg/mL for the second.

`CCCCCCCCC(CCCCCC)COC(=O)CCCCCCCCCN(CCCCCC)C(=O)CCCN(C)CCCC(=O)N(CCCCCC)CCCCCCCCCC(=O)OCC(CCCCCC)CCCCCCCC` (centres unmarked) [Compound I-50, Bis(2-Hexyldecyl) 10,10′-((4,4′-(Methylazanediyl)Bis(Butanoyl))Bis(Hexylazanediyl))Bis(Decanoate)] and `CCCCCCCCC(CCCCCC)COC(=O)CCCCC(=O)N(CCCCCC)CCCCCCCCN(C)CCCCCCCCN(CCCCCC)C(=O)CCCCC(=O)OCC(CCCCCC)CCCCCCCC` (centres unmarked) [Compound I-45, Bis(2-Hexyldecyl) 6,6′-(((Methylazanediyl)Bis(Octane-8,1-Diyl))Bis(Hexylazanediyl))Bis(6-Oxohexanoate)] are within error of each other in “Serum IgG (μg/mL) @ 0.3 mg/kg” value: 11.6 ± 8.2 µg/mL for the first, 18.3 ± 4.6 µg/mL for the second.

Compared with `CCCCCCCCC(CCCCCC)COC(=O)CCCCCCN(CCCCCC)C(=O)CCCCCCCN(C)CCCCCCCC(=O)N(CCCCCC)CCCCCCC(=O)OCC(CCCCCC)CCCCCCCC` (centres unmarked) [Compound I-14, Bis(2-Hexyldecyl) 7,7′-((8,8′-(Methylazanediyl)Bis(Octanoyl))Bis(Hexylazanediyl))Diheptanoate], `CCCCCCCCC(CCCCCC)COC(=O)CCCCCN(CCCCCC)C(=O)CCCCCN(C)CCCCCC(=O)N(CCCCCC)CCCCCC(=O)OCC(CCCCCC)CCCCCCCC` (centres unmarked) [Compound I-27, Bis(2-Hexyldecyl) 6,6′-((6,6′-(Methylazanediyl)Bis(Hexanoyl))Bis(Hexylazanediyl))Dihexanoate] is 2.1-fold lower in “Serum IgG (μg/mL) @ 0.3 mg/kg” value: 33.4 ± 7.7 µg/mL for the first, 15.6 ± 4.7 µg/mL for the second.

`CCCCCCCCC(CCCCCC)COC(=O)CCCCCNC(=O)CCCCCCCN(C)CCCCCCCC(=O)N(CCCCCC)CCCCCC(=O)OCC(CCCCCC)CCCCCCCC` (centres unmarked) [Compound I-11, 2-Hexyldecyl 6-(8-((8-(Hexyl(6-((2-Hexyldecyl)Oxy)-6-Oxohexyl)Amino)-8-Oxooctyl)(Methyl)Amino)Octanamido)Hexanoate] and `CCCCCCC(CCCC)COC(=O)CCCCCN(CCCCCC)C(=O)CCCCCCCN(C)CCCCCCCC(=O)N(CCCCCC)CCCCCC(=O)OCC(CCCC)CCCCCC` (centres unmarked) [Compound I-33, Bis(2-Butyloctyl) 6,6′-((8,8′-(Methylazanediyl)Bis(Octanoyl))Bis(Hexylazanediyl))Dihexanoate] are within error of each other in “Serum IgG (μg/mL) @ 0.3 mg/kg” value: 35.6 ± 5.5 µg/mL for the first, 75.8 ± 36.0 µg/mL for the second.

In the case of `CCCCCCCCC(CCCCCC)COC(=O)CCCCCN(CCCCCC)C(=O)CCN(C)CCC(=O)N(CCCCCC)CCCCCC(=O)OCC(CCCCCC)CCCCCCCC` (centres unmarked) [Compound I-48, Bis(2-Hexyldecyl) 6,6′-((3,3′-(Methylazanediyl)Bis(Propanoyl))Bis(Hexylazanediyl))Dihexanoate], the “Serum IgG (μg/mL) @ 0.3 mg/kg” value is reported as 27.5 ± 12.7 µg/mL.
